According to patent publication US5935829A, “Mutation assays involving blood cells that metabolize toxic substances” (priority 1992, dated 1999):
Like-named read-outs stand apart in the source and are kept apart here.

Assays:
[1] = system: AHH-1 cells
[2] = in vitro; conditions: human, ahh-1 cells, RELATIVE SURVIVAL; for viability at 48 h, 5000 µM: 5 mM × 48 hours; for viability at 48 h, 14000 µM: 14 mM × 48 hours; for viability at 48 h, 28000 µM: 28 mM × 48 hours; for viability at 48 h, 300 µM: 300 μM × 48 hours
[3] = in vitro; type: cell-based; conditions: human, ahh-1 cells, read-out: Relative Survival
Excerpt: (§1) Preferential survival during toxic treatment tested by exposing two sets of cells to varying concentrations of ICR-191.

[4] = in vitro; type: cell-based, human; conditions: human, 6-tg resistant ahh-1 cells, 6-TG^r AHH-1 cells, read-out: Relative Survival
Excerpt: as §1

[5] = system: 6-TG^r AHH-1 cells; experiment: in vitro; type: cell-based, human; conditions: varying concentrations of ICR-191
Excerpt: as §1

[6] = system: AHH-1 cells; experiment: Phenotypic expression of ICR-191 induced mutation; type: cell-based, human
Description: AHH-1 cell cultures were contacted with ICR-191 (Polysciences Inc, Warrington Pa.) which is a known mutagen comprising an acridine mustard derivative, at varying concentrations ranging up to 1.0 μM, for 24 hours. The cultures were resuspended in growth medium and allowed to grow. At different times after treatment, the cells were contacted with 6-TG to determine the mutant fraction.

[7] = 10 μM × 48 hours, induction BNF
[8] = 100 μM × 48 hours, induction BNF
[9] = 100 μM × 48 hours, induction none
[10] = 600 μM × 48 hours, induction none

**Q.** For `CN(C)N=O` [DMN, dimethylnitrosamine], which “MUTANT FRACTION × 10^6, MEAN ± STD.DEV.” value ([1]; 5 mM × 48 hours, induction BNF) is on record?
**A.** 4.0 ± 0.7 × 10^6

**Q.** What about the “MUTANT FRACTION × 10^6, MEAN ± STD.DEV.” value ([1]; 5 mM × 48 hours, induction none) of the same compound?
**A.** 3.5 ± 0.7 × 10^6

**Q.** What about the “MUTANT FRACTION × 10^6, MEAN ± STD.DEV.” value ([1]; 14 mM × 48 hours, induction BNF) of the same compound?
**A.** 8.0 ± 2.0 × 10^6

**Q.** What about the “MUTANT FRACTION × 10^6, MEAN ± STD.DEV.” value ([1]; 14 mM × 48 hours, induction none) of the same compound?
**A.** 3.5 ± 0.7 × 10^6

**Q.** And the “MUTANT FRACTION × 10^6, MEAN ± STD.DEV.” value ([1]; 28 mM × 48 hours, induction BNF)?
**A.** 8.6 ± 2.1 × 10^6

**Q.** What about the “MUTANT FRACTION × 10^6, MEAN ± STD.DEV.” value ([1]; 28 mM × 48 hours, induction none) of the same compound?
**A.** 4.1 ± 1.3 × 10^6

**Q.** And the viability at 48 h, 5000 µM ([2]; induction BNF)?
**A.** 112%

**Q.** What about the viability at 48 h, 5000 µM ([2]; induction none) of the same compound?
**A.** 98%

**Q.** And the viability at 48 h, 14000 µM ([2]; induction BNF)?
**A.** 100%

**Q.** What about the viability at 48 h, 14000 µM ([2]; induction none) of the same compound?
**A.** 92%

**Q.** And the viability at 48 h, 28000 µM ([2]; induction BNF)?
**A.** 87%

**Q.** What about the viability at 48 h, 28000 µM ([2]; induction none) of the same compound?
**A.** 81%

**Q.** For `CCOS(C)(=O)=O` [EMS, ethyl methanesulfonate], which “MUTANT FRACTION × 10^6, MEAN ± STD.DEV.” value ([1]; 59 μM × 24 hours) is on record?
**A.** 6.3 ± 1.3 × 10^6

**Q.** And the “MUTANT FRACTION × 10^6, MEAN ± STD.DEV.” value ([1]; 100 μM × 24 hours)?
**A.** 20 ± 5 × 10^6

**Q.** And the viability at 24 h, 59 µM ([2]; 59 μM × 24 hours)?
**A.** 48%

**Q.** And the viability at 24 h, 100 µM ([2]; 100 μM × 24 hours)?
**A.** 36%

**Q.** With `c1ccc2c(c1)-c1cccc3cccc-2c13` [Fla, fluoranthene] as the compound, how does the “RELATIVE SURVIVAL” value ([1]; human, ahh-1 cells, 48 h, 40 µM) read?
**A.** 0.70

**Q.** What about the viability at 48 h, 10 µM [2] of the same compound?
**A.** 105%

**Q.** What about the viability at 48 h, 20 µM [2] of the same compound?
**A.** 93%

**Q.** And the viability at 48 h, 40 µM [2]?
**A.** 75%

**Q.** What about the viability at 48 h, 50 µM [2] of the same compound?
**A.** 67%

**Q.** What about the viability at 48 h, 100 µM [2] of the same compound?
**A.** 45%

**Q.** For `COc1ccc2nc3cc(Cl)ccc3c(NCCCNCCCl)c2c1` [ICR-191], which viability at 24 h ([3]; 0.25 μg/ml at 24 hrs) is on record?
**A.** 65%

**Q.** And the viability at 24 h ([3]; 0.5 μg/ml at 24 hrs)?
**A.** 48%

**Q.** And the viability at 24 h ([3]; 1.0 μg/ml at 24 hrs)?
**A.** 13%

**Q.** What about the viability at 24 h ([4]; 0.25 μg/ml at 24 hrs) of the same compound?
**A.** 48%

**Q.** And the viability at 24 h ([4]; 0.5 μg/ml at 24 hrs)?
**A.** 20%

**Q.** What about the viability at 24 h ([4]; 1.0 μg/ml at 24 hrs) of the same compound?
**A.** 14%

**Q.** And the “difference in survival rate between non-resistant and 6-TG resistant AHH-1 cells” value [5]?
**A.** did not reach the level of statistical significance

**Q.** What about the “time to full expression of induced mutation” value ([6]; ICR-191 up to 1.0 μM, 24 hours) of the same compound?
**A.** ≤ 6 days

**Q.** And the “mutant fraction stability after full expression” value ([6]; up to 14 days)?
**A.** remained relatively stable

**Q.** And the “MUTANT FRACTION × 10^6, MEAN ± STD.DEV.” value ([1]; 0.63 μM × 24 hours)?
**A.** 62 ± 11 × 10^6

**Q.** What about the “MUTANT FRACTION × 10^6, MEAN ± STD.DEV.” value ([1]; 1.25 μM × 24 hours) of the same compound?
**A.** 116 ± 17 × 10^6

**Q.** And the “MUTANT FRACTION × 10^6, MEAN ± STD.DEV.” value ([1]; 2.5 μM × 24 hours)?
**A.** 147 ± 28 × 10^6

**Q.** And the viability at 24 h, 0.63 µM ([2]; 0.63 μM × 24 hours)?
**A.** 65%

**Q.** What about the viability at 24 h, 1.25 µM ([2]; 1.25 μM × 24 hours) of the same compound?
**A.** 48%

**Q.** And the viability at 24 h, 2.5 µM ([2]; 2.5 μM × 24 hours)?
**A.** 13%

**Q.** What does the source list for `C/C=C(/C)C(=O)O[C@H]1CCN2CC=C(COC(=O)[C@@](O)([C@H](C)OC)C(C)(C)O)[C@H]12` [LSCP, lasiocarpine]?
**A.** MUTANT FRACTION × 10^6, MEAN ± STD.DEV. [1, 7]: 3.9 ± 1 × 10^6; MUTANT FRACTION × 10^6, MEAN ± STD.DEV. [1, 8]: 4.3 ± 1 × 10^6; MUTANT FRACTION × 10^6, MEAN ± STD.DEV. [1, 9]: 5.4 ± 0.6 × 10^6; MUTANT FRACTION × 10^6, MEAN ± STD.DEV. ([1]; 300 μM × 48 hours, induction BNF): 12.7 ± 2.1 × 10^6; MUTANT FRACTION × 10^6, MEAN ± STD.DEV. ([1]; 300 μM × 48 hours, induction none): 6.2 ± 1.3 × 10^6; MUTANT FRACTION × 10^6, MEAN ± STD.DEV. [1, 10]: 6.0 ± 1.4 × 10^6; viability at 48 h, 10 µM [2, 7]: 103%; viability at 48 h, 100 µM [2, 8]: 91%; viability at 48 h, 100 µM [2, 9]: 130%; viability at 48 h, 300 µM ([2]; induction BNF): 81%; viability at 48 h, 300 µM ([2]; induction none): 89%; viability at 48 h, 600 µM [2, 10]: 82%
